In publication PMC7203973 (ACS Omega, 2020):

What was measured:
[1] = cited from earlier work
[2] = marketed drugs; cited from earlier work
[3] = cited from earlier work; remark: listed apart in the source
[4] = cited from earlier work; remark: listed apart in the source
Permeability by PAMPA = format: in vitro ADME
[5] = cited from earlier work; remark: listed apart in the source

Structure (SMILES): CCN(CC)CCCC(C)Nc1ccnc2cc(Cl)ccc12 (stereo not drawn) [chloroquine]
- blood-to-plasma ratio (KRBC/Plasma), reported in the literature [1]: 8.5 ± 0.1

Structure (SMILES): NS(=O)(=O)c1cc(C2(O)NC(=O)c3ccccc32)ccc1Cl (stereo not drawn) [chlorthalidone]
- blood-to-plasma ratio (KRBC/Plasma), reported in the literature [1]: 20.0 ± 0.3

Structure (SMILES): CCOC(=O)[C@H](CCc1ccccc1)N[C@@H](C)C(=O)N1CCC[C@H]1C(=O)O [enalapril]
- stability in rat plasma versus human plasma [2]: very less stable in rat plasma but more stable in human plasma

Structure (SMILES): CCN(CC)CCOC(=O)c1ccc(N)cc1 [procaine]
- stability in rat plasma versus human plasma [2]: vice verse

Structure (SMILES): CO[C@H]1C[C@@H]2CC[C@@H](C)[C@@](O)(O2)C(=O)C(=O)N2CCCC[C@H]2C(=O)O[C@H]([C@H](C)C[C@@H]2CC[C@@H](O)[C@H](OC)C2)CC(=O)[C@H](C)/C=C(\C)[C@@H](O)[C@@H](OC)C(=O)[C@H](C)C[C@H](C)/C=C/C=C/C=C/1C [rapamycin]
- blood-to-plasma ratio (KRBC/Plasma), reported in the literature [1]: 3.5 ± 0.5

Structure (SMILES): CO[C@H]1/C=C/O[C@@]2(C)Oc3c(C)c(O)c4c(O)c(c(/C=N/N5CCN(C)CC5)c(O)c4c3C2=O)NC(=O)/C(C)=C\C=C\[C@H](C)[C@H](O)[C@@H](C)[C@@H](O)[C@@H](C)[C@H](OC(C)=O)[C@@H]1C [rifampicin]
- plasma protein binding, reported results [3]: 82–92%

Structure (SMILES): C[C@]12CC[C@H]3[C@@H](CCC4=CC(=O)CC[C@@]43C)[C@@H]1CC[C@@H]2O [testosterone]
- partition coefficient (log P), reported value [4]: around 3.28
- Papp at 5 h, 25 μM (Permeability by PAMPA): 102 ×10⁻⁶ cm/s
- permeability (log Pe), reported results [5]: −3.5 to −4.9
